≈ marks a conversion by molar mass, not a printed value. Where two headings read alike, the source gives them in different places. Residues, ends and D or L forms follow the SMILES beside them.
Columns and labels:
[1] = test system: A. baumannii AB5075 (MRSN959); assay type: cell-based, Acinetobacter baumannii
Protocol: (§1) Minimum inhibitory concentration (n = 3) was performed according to the CLSI protocols with a minor modification, in which Difco Mueller Hinton broth (BD 275730, Franklin Lakes, NJ, USA) was used instead of cation-adjusted Mueller Hinton broth following Wiegand et al.’s standardized protocol for testing AMPs. Bacteria were grown overnight in an opaque colony, and the concentration was determined using McFarland’s technique. An aliquot of 50 µL of 1 × 10^6 CFU/mL of bacteria was incubated with a decreasing series of peptide concentration to achieve a final bacterial concentration of 5 × 10^5 CFU/mL at 37 °C 5% CO2 for 20–24 h in Difco Mueller Hinton broth. Dilutions were performed in a 96-well polypropylene plate (Corning 3879, Corning, NY, USA). This is critical to avoid peptide binding to the plate. Results were obtained by measuring bacterial growth at OD600 nm. LL-37 and polymyxin B were used as positive controls. Samples containing only the medium and medium with peptides were used as the sterility controls and samples containing only bacteria in MHB served as the growth control. Each experiment was performed twice, and one representative experiment is shown.

A. baumannii BAA-1710 [2] = assay type: cell-based, Acinetobacter baumannii; details: A. baumannii BAA-1710; Difco Mueller Hinton broth, 5 × 10^5 CFU/mL, 37 °C 5% CO2, 20–24 h, OD600, n = 3
Protocol: as §1

A. baumannii BAA-1794 = assay type: cell-based, Acinetobacter baumannii; details: A. baumannii BAA-1794; Difco Mueller Hinton broth, 5 × 10^5 CFU/mL, 37 °C 5% CO2, 20–24 h, OD600, n = 3
Protocol: as §1

A. baumannii BAA-1800 = assay type: cell-based, Acinetobacter baumannii; details: A. baumannii BAA-1800; Difco Mueller Hinton broth, 5 × 10^5 CFU/mL, 37 °C 5% CO2, 20–24 h, OD600, n = 3
Protocol: as §1

A. baumannii AB5075 = assay: Time-kill kinetics; assay type: cell-based, Acinetobacter baumannii; details: AB5075, highest concentration (5 µg/mL)
Excerpt: (§2) At the various timepoints, samples were serially diluted, and CFUs were counted by spot plating on a Tryptic Soy agar.

A. baumannii BAA-1710 [3] = assay: Time-kill kinetics; assay type: cell-based, Acinetobacter baumannii; details: BAA-1710, all tested concentrations (1×, 5×, 10× MIC; MIC = 0.5 µg/mL)
Excerpt: as §2

[4] = test system: A. baumannii BAA-1800 biofilm; details: A. baumannii BAA-1800, TSB, 24 h 37 °C
Protocol: The MBIC assay measures the lowest concentration of a compound that inhibits the biofilm formation of an organism. A series of decreasing peptide concentrations starting from 64 μg/mL to 0.25 μg/mL (100 µL) were incubated with 1 × 10^5 CFU of A. baumannii in 100 µL of Tryptic Soy broth (TSB) in a polystyrene 96-well plate (Falcon 353072, Corning, NY, USA) for 24 h at 37 °C to assess biofilm formation inhibition, as described previously with minor modifications. After the incubation of bacteria with AMPs, OD600 nm was measured for approximate bacterial growth. Media were carefully removed, and wells (n = 3) were rinsed with tap water. Plates were heat-fixed at 70 °C for 1 h, and 200 µL of 0.1% crystal violet diluted in deionized water were added to wells and allowed to incubate for 15 min. Excess stain was rinsed off with tap water, and the plates were air-dried. After that, 200 µL of 33% glacial acetic acid was added to resolubilize the stain, and biofilm mass was measured by a spectrophotometric reading at OD590. Bacteria alone (no treatment) served as the 100% biofilm control, and media alone and media with a peptide/drug were used as the sterility control and the 0% biofilm control.

[5] = test system: AB5075 pre-formed (24 h) biofilm; assay type: cell-based, Acinetobacter baumannii
Protocol: The MBEC assay measures the lowest concentration of an antimicrobial agent that can eradicate established biofilms. Using the MBEC assay in the Biofilm Inoculator 96-well base (Innovotech Cat #1911, Edmonton, AB, Canada) and following the manufacturer’s protocol, 150 µL (n = 6) of 1 × 10^6 CFU/mL of AB5075 in TSB was incubated for 24 h at 37 °C at 110 rpm for biofilm formation. The lid containing pegs was rinsed with sterile PBS for 5 min, and then the lid was placed in a peptide challenge polypropylene 96-well plate containing a decreasing series of drug concentrations and incubated for 24 h at 37 °C at 110 rpm. Pegs were washed three times with tap water, heat-fixed for 70 °C for 1 h, and stained with 0.1% crystal violet for 15 min. Excess stain was rinsed off with tap water and allowed to dry. Stained pegs were resolubilized with 200 µL of 33% glacial acetic acid. OD590 was obtained to measure the remaining biofilm. Pegs with only bacteria served as the growth control and 100% biofilm control. Media alone and media with a peptide/drug served as the sterility controls. […] The experiment was performed twice.

AB5075 = assay: Membrane permeabilization assay (ethidium bromide uptake); assay type: cell-based, Acinetobacter baumannii; details: 50 µg/mL, 10 µM ethidium bromide, 20 min at 37 °C, versus untreated control
Protocol: Membrane permeabilization was assessed using ethidium bromide uptake after peptide exposure, as we have previously described. AB5075 was grown on a Tryptic Soy agar for 18–24 h. Colonies presenting opaque morphology were picked and resuspended in DPBS (Gibco, Waltham, MA, USA) to achieve 0.1 OD600. A total of 180 µL of the bacterial suspension was mixed with a final peptide concentration of 50 µg/mL and a final ethidium bromide concentration of 10 µM in a black 96-well flat plate (Ultracruz Polypropylene Microplate sc-204462, Santacruz, CA, USA). The plate was transferred immediately to BioTek Cytation 5 (Santa Clara, CA, USA) for fluorescence intensity readings every 2 min for 20 min at 37 °C (excitation: 535 nm; emission: 590 nm). The relative fluorescence units (RFUs) were calculated. Tested samples minus no peptide control that has EtBr. LL-37 and polymyxin B were used as the controls in this experiment. The experiment was run in three replicates twice. Student’s t-test was used to determine statistical significance.

Galleria mellonella = assay: Waxworm toxicity testing; details: 10 µg in 10 µL PBS injected per worm, 10 worms per group, 72 h
Protocol: Galleria mellonella were obtained from Vanderhorst Wholesale (Saint Mary’s, OH, USA), and 10 worms with equal weights between 200 to 300 mg were assigned to each group. […] The experiment was performed twice, and the results were analyzed by the Mantel–Cox test.

## CC[C@H](C)CCCCC(=O)N[C@@H](CCN)C(=O)N[C@H](C(=O)N[C@@H](CCN)C(=O)N[C@H]1CCNC(=O)[C@H]([C@@H](C)O)NC(=O)[C@H](CCN)NC(=O)[C@H](CCN)NC(=O)[C@H](CC(C)C)NC(=O)[C@@H](Cc2ccccc2)NC(=O)[C@H](CCN)NC1=O)[C@@H](C)O [Polymyxin B] (HELM PEPTIDE1{[CC[C@H](C)CCCCC(=O)[*:2]].[Dab].T.[Dab].[Dab].[Dab].[dF].L.[Dab].[Dab].T}$PEPTIDE1,PEPTIDE1,5:R3-11:R2$$$V2.0; N-terminus assumed; bridges inferred)
[1]; A. baumannii AB5075 (MRSN959), Difco Mueller Hinton broth, 5 × 10^5 CFU/mL, 37 °C 5% CO2, 20–24 h, OD600, n = 3
  MIC: 0.25 to 0.5 µg/mL
[1]; A. baumannii AB5075, experiment shown in Figure S2
  MIC: 0.5 µg/mL (≈ 0.415 µM)
A. baumannii BAA-1710 [2]
  MIC: 0.5 µg/mL (≈ 0.415 µM)
A. baumannii BAA-1794
  MIC: 0.5 µg/mL (≈ 0.415 µM)
A. baumannii BAA-1800
  MIC: 0.5 µg/mL (≈ 0.415 µM)
A. baumannii AB5075
  Time to complete killing: ≤ 3 h
A. baumannii BAA-1710 [3]
  Killing within 3 h: failed to kill
[4]; crystal violet
  MBEC50: 2 µg/mL
[4]; polystyrene plate, crystal violet OD590, n = 3
  MBIC100: 1 µg/mL
[5]; AB5075 pre-formed biofilm, CFU determination
  Concentration giving complete eradication of bacteria (reduction in CFU) in pre-formed biofilms: 2 µg/mL
[5]; MBEC100, AB5075 24 h pre-formed biofilm on pegs, 24 h challenge, crystal violet OD590, n = 6
  MBEC: * 2 µg/mL
[5]; treated with between 2 and 16 µg/mL, AB5075 pre-formed biofilm
  crystal violet-stained biofilm mass maintained: up to 40%
AB5075
  Membrane permeabilization: disrupted bacterial membranes
Galleria mellonella
  Survival of worms: 80%

— article PMC10525135, “Computationally Designed AMPs with Antibacterial and Antibiofilm Activity against MDR Acinetobacter baumannii” (Antibiotics, 2023)
